# Experimental data from PubChem BioAssay (NCI).
#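 Tested at 5 concentrations; 48 h exposure; 96-well plates; endpoints linearly interpolated, else capped at highest concentration. At the TGI there is no net growth.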
# Columns and labels:
# Test in all cases: growth of human tumour cells (NCI), 48 h
# [1] = tested on: DMS 114 small cell lung
# [2] = tested on: M19-MEL melanoma
# [3] = tested on: DMS 273 small cell lung
# [4] = tested on: SNB-75 CNS
# [5] = tested on: RPMI-8226 leukemia
# [6] = tested on: HOP-62 NSCLC
# [7] = tested on: KM12 colon
# [8] = tested on: ACHN renal
# [9] = tested on: HOP-18 NSCLC
# [10] = tested on: HCT-116 colon
# [11] = tested on: OVCAR-8 ovarian
# [12] = tested on: HL-60(TB) leukemia
# [13] = tested on: OVCAR-5 ovarian
# [14] = tested on: SF-295 CNS
# [15] = tested on: MALME-3M melanoma
# [16] = tested on: UACC-257 melanoma
# [17] = tested on: HCC-2998 colon
# [18] = tested on: SK-OV-3 ovarian
# [19] = tested on: UO-31 renal
# [20] = tested on: SK-MEL-2 melanoma
# [21] = tested on: U251 CNS
# [22] = tested on: HOP-92 NSCLC
# [23] = tested on: SR leukemia
# [24] = tested on: NCI-H23 lung
# [25] = tested on: LXFL 529 NSCLC
# [26] = tested on: SK-MEL-28 melanoma
# [27] = tested on: SF-268 CNS
# [28] = tested on: SF-539 CNS
# [29] = tested on: M14 melanoma
# [30] = tested on: CCRF-CEM leukemia
# [31] = tested on: UACC-62 melanoma
# [32] = tested on: SN12C renal
# [33] = tested on: IGROV1 ovarian
# [34] = tested on: HT29 colon
# [35] = tested on: KM20L2 colon
# [36] = tested on: EKVX NSCLC
# [37] = tested on: SK-MEL-5 melanoma
# [38] = tested on: 786-0 renal
# [39] = tested on: SNB-19 CNS
# [40] = tested on: NCI-H460 lung
# [41] = tested on: SNB-78 CNS
# [42] = tested on: K-562 leukemia
# [43] = tested on: OVCAR-4 ovarian
# [44] = tested on: SW-620 colon
# [45] = tested on: MOLT-4 leukemia
# [46] = tested on: NCI-H226 lung
# [47] = tested on: COLO 205 colon
# [48] = tested on: HCT-15 colon
# [49] = tested on: RXF 393 renal
# [50] = tested on: A549 NSCLC
# [51] = tested on: DLD-1 colon
# [52] = tested on: NCI-H522 lung
# [53] = tested on: A498 renal
# [54] = tested on: OVCAR-3 ovarian
# [55] = tested on: LOX IMVI melanoma
# [56] = tested on: CAKI-1 renal
# [57] = tested on: TK-10 renal
structure (smiles),measurement,setting,value
N/N=c1\c2ccccc2c2ccc3c4ccccc4/c(=N\N)c3c12,TGI,[1],> 100 µM
same,TGI,[2],> 100 µM
same,TGI,[3],> 100 µM
same,TGI,[4],> 100 µM
same,TGI,[5],> 100 µM
same,TGI,[6],> 100 µM
same,TGI,[7],> 100 µM
same,TGI,[8],> 100 µM
same,TGI,[9],> 100 µM
same,TGI,[10],> 100 µM
same,TGI,[11],> 100 µM
same,TGI,[12],> 100 µM
same,TGI,[13],> 100 µM
same,TGI,[14],> 100 µM
same,TGI,[15],> 100 µM
same,TGI,[16],> 100 µM
same,TGI,[17],> 100 µM
same,TGI,[18],> 100 µM
same,TGI,[19],> 100 µM
same,TGI,[20],> 100 µM
same,TGI,[21],> 100 µM
same,TGI,[22],> 100 µM
same,TGI,[23],> 100 µM
same,TGI,[24],> 100 µM
same,TGI,[25],> 100 µM
same,TGI,[26],> 100 µM
same,TGI,[27],> 100 µM
same,TGI,[28],> 100 µM
same,TGI,[29],> 100 µM
same,TGI,[30],> 100 µM
same,TGI,[31],> 100 µM
same,TGI,[32],> 100 µM
same,TGI,[33],> 100 µM
same,TGI,[34],> 100 µM
same,TGI,[35],> 100 µM
same,TGI,[36],> 100 µM
same,TGI,[37],> 100 µM
same,TGI,[38],> 100 µM
same,TGI,[39],> 100 µM
same,TGI,[40],> 100 µM
same,TGI,[41],> 100 µM
same,TGI,[42],> 100 µM
same,TGI,[43],> 100 µM
same,TGI,[44],> 100 µM
same,TGI,[45],> 100 µM
same,TGI,[46],> 100 µM
same,TGI,[47],> 100 µM
same,TGI,[48],> 100 µM
same,TGI,[49],> 100 µM
same,TGI,[50],> 100 µM
same,TGI,[51],> 100 µM
same,TGI,[52],> 100 µM
CCN(CC)c1c(C(=O)/C=C/c2ccc(F)cc2)c(-c2ccccc2)nn(C)c1=O,TGI,[1],19.2 µM
same,TGI,[2],25.1 µM
same,TGI,[3],21 µM
same,TGI,[4],22.5 µM
same,TGI,[5],9.89 µM
same,TGI,[6],28.6 µM
same,TGI,[53],21.1 µM
same,TGI,[7],18.9 µM
same,TGI,[8],20.6 µM
same,TGI,[9],58.4 µM
same,TGI,[10],14.5 µM
same,TGI,[11],19.1 µM
same,TGI,[12],15.7 µM
same,TGI,[13],41.9 µM
same,TGI,[14],34 µM
same,TGI,[15],27.8 µM
same,TGI,[16],21.2 µM
same,TGI,[17],10.5 µM
same,TGI,[18],60.8 µM
same,TGI,[19],24.4 µM
same,TGI,[20],16.7 µM
same,TGI,[21],19.1 µM
same,TGI,[22],19.4 µM
same,TGI,[24],16.5 µM
same,TGI,[25],19.9 µM
same,TGI,[26],31.5 µM
same,TGI,[27],35.8 µM
same,TGI,[29],25.6 µM
same,TGI,[30],6.82 µM
same,TGI,[31],33.1 µM
same,TGI,[54],21.2 µM
same,TGI,[32],21.8 µM
same,TGI,[33],21.9 µM
same,TGI,[55],23.6 µM
same,TGI,[34],18.6 µM
same,TGI,[35],44.4 µM
same,TGI,[36],55.3 µM
same,TGI,[37],21.1 µM
same,TGI,[38],23.2 µM
same,TGI,[39],58.4 µM
same,TGI,[40],18.8 µM
same,TGI,[41],44.9 µM
same,TGI,[42],34.1 µM
same,TGI,[43],20.5 µM
same,TGI,[44],34.8 µM
same,TGI,[45],5.91 µM
same,TGI,[46],34 µM
same,TGI,[47],14.8 µM
same,TGI,[56],69.6 µM
same,TGI,[48],25.7 µM
same,TGI,[49],11 µM
same,TGI,[50],43.2 µM
same,TGI,[51],26.7 µM
same,TGI,[52],13.9 µM
same,TGI,[57],38.5 µM
C[C@]12CCC(=O)C(O)=C1CCC2=O,TGI,[2],> 100 µM
same,TGI,[3],> 100 µM
same,TGI,[4],> 100 µM
same,TGI,[5],> 100 µM
same,TGI,[6],> 100 µM
same,TGI,[53],> 100 µM
same,TGI,[7],> 100 µM
same,TGI,[8],> 100 µM
same,TGI,[9],> 100 µM
same,TGI,[10],> 100 µM
same,TGI,[11],> 100 µM
same,TGI,[12],> 100 µM
same,TGI,[13],> 100 µM
same,TGI,[14],> 100 µM
same,TGI,[15],> 100 µM
same,TGI,[16],> 100 µM
same,TGI,[17],> 100 µM
same,TGI,[18],> 100 µM
same,TGI,[19],> 100 µM
same,TGI,[21],> 100 µM
same,TGI,[22],> 100 µM
same,TGI,[23],> 100 µM
same,TGI,[25],> 100 µM
same,TGI,[26],> 100 µM
same,TGI,[27],> 100 µM
same,TGI,[28],> 100 µM
same,TGI,[29],> 100 µM
same,TGI,[30],> 100 µM
same,TGI,[31],> 100 µM
same,TGI,[54],> 100 µM
same,TGI,[32],> 100 µM
same,TGI,[33],> 100 µM
same,TGI,[55],> 100 µM
same,TGI,[34],> 100 µM
same,TGI,[35],> 100 µM
same,TGI,[36],> 100 µM
same,TGI,[37],> 100 µM
same,TGI,[38],> 100 µM
same,TGI,[39],> 100 µM
same,TGI,[40],> 100 µM
same,TGI,[41],> 100 µM
same,TGI,[43],> 100 µM
same,TGI,[44],> 100 µM
same,TGI,[45],> 100 µM
same,TGI,[46],> 100 µM
same,TGI,[47],> 100 µM
same,TGI,[56],> 100 µM
same,TGI,[48],> 100 µM
same,TGI,[49],> 100 µM
same,TGI,[50],> 100 µM
same,TGI,[51],> 100 µM
same,TGI,[52],> 100 µM
same,TGI,[57],> 100 µM
CC(C)C(NCc1c2ccccc2[n+]([O-])c2ccccc12)C(=O)O (stereo unspecified),TGI,[1],> 100 µM
same,TGI,[3],> 100 µM
same,TGI,[4],> 100 µM
same,TGI,[5],86.5 µM
same,TGI,[6],> 100 µM
same,TGI,[53],> 100 µM
same,TGI,[7],> 100 µM
same,TGI,[8],> 100 µM
same,TGI,[9],> 100 µM
same,TGI,[10],> 100 µM
same,TGI,[11],> 100 µM
same,TGI,[12],76 µM
same,TGI,[13],> 100 µM
same,TGI,[14],> 100 µM
same,TGI,[15],> 100 µM
same,TGI,[16],> 100 µM
same,TGI,[17],> 100 µM
same,TGI,[18],> 100 µM
same,TGI,[19],> 100 µM
same,TGI,[20],> 100 µM
same,TGI,[21],> 100 µM
same,TGI,[22],53.2 µM
same,TGI,[24],> 100 µM
same,TGI,[25],> 100 µM
same,TGI,[26],> 100 µM
same,TGI,[27],> 100 µM
same,TGI,[29],> 100 µM
same,TGI,[30],> 100 µM
same,TGI,[31],> 100 µM
same,TGI,[54],> 100 µM
same,TGI,[32],> 100 µM
same,TGI,[33],> 100 µM
same,TGI,[55],> 100 µM
same,TGI,[34],> 100 µM
same,TGI,[35],> 100 µM
same,TGI,[36],> 100 µM
same,TGI,[37],> 100 µM
same,TGI,[38],> 100 µM
same,TGI,[39],> 100 µM
same,TGI,[40],> 100 µM
same,TGI,[41],> 100 µM
same,TGI,[42],> 100 µM
same,TGI,[43],> 100 µM
same,TGI,[44],> 100 µM
same,TGI,[45],> 100 µM
same,TGI,[46],> 100 µM
same,TGI,[47],> 100 µM
same,TGI,[56],> 100 µM
same,TGI,[48],> 100 µM
same,TGI,[50],> 100 µM
same,TGI,[51],> 100 µM
same,TGI,[52],> 100 µM
same,TGI,[57],> 100 µM
CN(C)CCNC(=O)C1COc2cc(-c3cc(=O)c4ccccc4o3)ccc2O1 (stereo unspecified),TGI,[2],> 100 µM
same,TGI,[3],36.3 µM
same,TGI,[4],43.1 µM
same,TGI,[5],85.1 µM
same,TGI,[6],> 100 µM
same,TGI,[53],33.7 µM
same,TGI,[8],33.1 µM
same,TGI,[9],56 µM
same,TGI,[10],29.6 µM
same,TGI,[11],70.1 µM
same,TGI,[12],58.9 µM
same,TGI,[13],> 100 µM
same,TGI,[14],93.6 µM
same,TGI,[15],36.2 µM
same,TGI,[16],34.7 µM
same,TGI,[17],> 100 µM
same,TGI,[18],53.8 µM
same,TGI,[19],> 100 µM
same,TGI,[21],40.3 µM
same,TGI,[22],> 100 µM
same,TGI,[23],39.5 µM
same,TGI,[24],> 100 µM
same,TGI,[26],36 µM
same,TGI,[27],50.9 µM
same,TGI,[28],32.9 µM
same,TGI,[29],32 µM
same,TGI,[30],> 100 µM
same,TGI,[31],34.9 µM
same,TGI,[54],43.7 µM
same,TGI,[32],78.8 µM
same,TGI,[33],48.3 µM
same,TGI,[55],38.3 µM
same,TGI,[34],34.6 µM
same,TGI,[35],56.5 µM
same,TGI,[36],> 100 µM
same,TGI,[37],28.8 µM
same,TGI,[38],36.3 µM
same,TGI,[39],57.8 µM
same,TGI,[40],> 100 µM
same,TGI,[41],57.8 µM
same,TGI,[42],> 100 µM
same,TGI,[43],33.2 µM
same,TGI,[44],44.5 µM
same,TGI,[45],40.7 µM
same,TGI,[46],49 µM
same,TGI,[47],31.7 µM
same,TGI,[56],38.3 µM
same,TGI,[48],> 100 µM
same,TGI,[49],38.8 µM
same,TGI,[50],35.5 µM
same,TGI,[51],> 100 µM
same,TGI,[52],31 µM
same,TGI,[57],75.9 µM
